From patent US12358918B2, “Aryl hydrocarbon receptor (AHR) activator compounds as cancer therapeutics” (THE BROAD INSTITUTE, INC., priority 2018, dated 2025)

How the values were obtained:
[1] = system: MDA-MB-231 breast cancer cell lines; experiment: cytotoxicity, control cells vs cells overexpressing CYP1A1; assay type: cell-based
Source text: The dependence of each compound's cytotoxic effects upon CYP1A1 was also examined, via screening of MDA-MB-231 breast cancer cell lines for cytotoxic response. The CYP1A1-dependence of the cytotoxic response of to each tested compound was specifically determined by comparing the cytotoxicity of each compound administered to control cells with that of the compound administered to corresponding cells that overexpressed CYP1A1. […]

[2] = system: MDA-MB-468 and ZR51 breast cancer and JHH7 liver cancer cell lines
[3] = system: MDA-MB-468 breast cancer cells; experiment: Western immunoblot of treated cells over 24 hours; assay type: cell-based; details: FIG. 18
Procedure: Adherent cells were washed once with cold 1×PBS (Corning #01018002) and lysed with RIPA buffer (Sigma #R0278) supplemented by protease and phosphatase inhibitors (Sigma). Protein content was quantified using the DC Protein Assay (BioRad #5000111). Samples were reduced with (loading buffer) and boiled at 95° C. before being resolved by SDS gel electrophoresis on 4-20% Tris/glycine gels (Invitrogen). Proteins were transferred using the IBlot2 (Thermo #IB21001) onto the iBlot™ 2 nitrocellulose Transfer Stacks (Thermo #IB23001). The membranes were then blocked in Odyssey Blocking Buffer (Li-COR #927-40000) for one hour, and then probed overnight with primary antibodies diluted in blocking buffer. The following day, membranes were washed 3×5 mins with 1×TBST and then probed with LiCOR Infrared secondary antibodies for 1 hour at room temperature. Membranes were washed an additional 3×5 mins in 1×TBST and then imaged using the LiCOR Imager. […]

Structure (SMILES) | CYP1A1-dependence of the cytotoxic response [1] | AHR-dependence of the cytotoxic response [2] | CYP1A1 expression ([3]; 24 hour time course) | FOXA1 levels ([3]; 24 hour time course) | DNA double stranded breaks (pH2A.X) and PARP cleavage ([3]; within 24 hours)
CSc1nc2ccccc2c2nc(-c3ccco3)nn12 [2-(2-furyl)-5-(methylsulfanyl)[1,2,4]triazolo[1,5-c]quinazoline] | CYP1A1-dependent cytotoxic | dependence upon AHR | – | – | –
O=c1[nH]c2ccccc2c2nc(-c3ccco3)nn12 [2-(2-furyl)[1,2,4]triazolo[1,5-c]quinazolin-5(6H)-one] | CYP1A1-dependent cytotoxic | dependence upon AHR | – | – | –
Sc1nc2ccccc2c2nc(-c3ccco3)nn12 [2-(2-furyl)[1,2,4]triazolo[1,5-c]quinazolin-5-yl hydrosulfide] | CYP1A1-dependent cytotoxic | dependence upon AHR | – | – | –
c1coc(-c2nc3c4ccccc4ncn3n2)c1 [2-(2-furyl)[1,2,4]triazolo[1,5-c]quinazoline] | CYP1A1-dependent cytotoxic | dependence upon AHR | – | – | –
Clc1cccc2ncn3nc(-c4ccco4)nc3c12 [10-chloro-2-(2-furyl)[1,2,4]triazolo[1,5-c]quinazoline] | CYP1A1-dependent cytotoxic | dependence upon AHR | – | – | –
O=c1[nH]c2ccc(Cl)c(Cl)c2c2nc(-c3ccco3)nn12 [A1] | CYP1A1-dependent cytotoxic | dependence upon AHR | – | – | –
Nc1nc2cccc(C(F)(F)F)c2c2nc(-c3ccco3)nn12 [A2] | CYP1A1-dependent cytotoxic | dependence upon AHR | – | – | –
Nc1nc2ccc(Br)cc2c2nc(-c3ccco3)nn12 [A14] | CYP1A1-dependent cytotoxic | dependence upon AHR | – | – | –
COc1ccc2nc(N)n3nc(-c4ccco4)nc3c2c1 [A15] | CYP1A1-dependent cytotoxic | dependence upon AHR | – | – | –
COc1cccc2nc(N)n3nc(-c4ccco4)nc3c12 [A16] | CYP1A1-dependent cytotoxic | dependence upon AHR | – | – | –
Nc1nc2cccc(F)c2c2nc(-c3ccco3)nn12 [A17] | CYP1A1-dependent cytotoxic | dependence upon AHR | – | – | –
O=C1NC(=O)c2c1c1c3ccccc3[nH]c1c1[nH]c3ccccc3c21 [Arcyriaflavin A, reference compound] | CYP1A1-dependent cytotoxic | dependence upon AHR | – | – | –
Cc1nc2cccc(Cl)c2c2nc(-c3ccco3)nn12 [B1] | CYP1A1-dependent cytotoxic | dependence upon AHR | – | – | –
Cc1nc2ccc(Cl)cc2c2nc(-c3ccco3)nn12 [B2] | CYP1A1-dependent cytotoxic | dependence upon AHR | – | – | –
Cc1nc2cccc(C(F)(F)F)c2c2nc(-c3ccco3)nn12 [B3] | CYP1A1-dependent cytotoxic | dependence upon AHR | – | – | –
Cc1ccc(-c2nc3c4ccccc4nc(C)n3n2)o1 [B5] | CYP1A1-dependent cytotoxic | dependence upon AHR | – | – | –
Cc1nc2cnccc2c2nc(-c3ccco3)nn12 [B7] | CYP1A1-dependent cytotoxic | dependence upon AHR | – | – | –
Cn1cccc1-c1nc2c3cc(Cl)ccc3nc(N)n2n1 [BRO-018, 9-chloro-2-(1-methyl-1H-pyrrol-2-yl)-[1,2,4]triazolo[1,5-c]quinazolin-5-amine] | CYP1A1-dependent cytotoxic | dependence upon AHR | – | – | –
Nc1nc2ccc(F)cc2c2nc(-c3ccco3)nn12 [BRO-023, 9-fluoro-2-(furan-2-yl)-[1,2,4]triazolo[1,5-c]quinazolin-5-amine] | CYP1A1-dependent cytotoxic | dependence upon AHR | – | – | –
Nc1nc2ccc(C(F)(F)F)cc2c2nc(-c3ccco3)nn12 [BRO-024, 2-(furan-2-yl)-9-(trifluoromethyl)-[1,2,4]triazolo[1,5-c]quinazolin-5-amine] | CYP1A1-dependent cytotoxic | dependence upon AHR | – | – | –
CC(C)c1ccc2nc(N)n3nc(-c4ccco4)nc3c2c1 [BRO-025, 2-(furan-2-yl)-9-isopropyl-[1,2,4]triazolo[1,5-c]quinazolin-5-amine] | CYP1A1-dependent cytotoxic | dependence upon AHR | – | – | –
Nc1nc2cc(Cl)ccc2c2nc(-c3ccco3)nn12 [BRO-026, 8-chloro-2-(furan-2-yl)-[1,2,4]triazolo[1,5-c]quinazolin-5-amine] | CYP1A1-dependent cytotoxic | dependence upon AHR | – | – | –
Nc1nc2cccc(Cl)c2c2nc(-c3ccco3)nn12 [BRO-027, 10-chloro-2-(furan-2-yl)-[1,2,4]triazolo[1,5-c]quinazolin-5-amine] | CYP1A1-dependent cytotoxic | dependence upon AHR | – | – | –
O=Cc1c2[nH]c3ccccc3c2cc2[nH]c3ccccc3c12 [FICZ, reference compound] | CYP1A1-dependent cytotoxic | dependence upon AHR | – | – | –
c1ccc(-c2n[nH]c3c2oc2ccccc23)cc1 [GTP 14564, reference compound] | CYP1A1-dependent cytotoxic | dependence upon AHR | – | – | –
COc1ccc(CCCn2ncc3c2nc(N)n2nc(-c4ccco4)nc32)cc1 [SCH 442416, reference compound] | CYP1A1-dependent cytotoxic | dependence upon AHR | – | – | –
Cc1nc2ccccc2c2nc(-c3ccoc3)nn12 [Z1222312995] | CYP1A1-dependent cytotoxic | dependence upon AHR | – | – | –
COc1cccc2c1C(=O)c1c(O)c3c(c(O)c1C2=O)C[C@@](O)(C(=O)CO)C[C@@H]3O[C@H]1C[C@H](N)[C@H](O)[C@H](C)O1 [doxorubicin] | – | – | no detectable induction of CYP1A1 expression | decline in FOXA1 levels | induced DNA double stranded breaks
